Measurements as given in ChEMBL document CHEMBL1150648, “Coproverdine, a novel, cytotoxic marine alkaloid from a new zealand ascidian” (J Nat Prod, 2002).
pIC50: −log10 of the molar value.

Columns and labels:
Type in all cases: functional, cell-based
SK-MEL-28 = assay: Cytotoxicity against human SK-MEL-28 cells
A549 = assay: Cytotoxicity against human A549 cells
P388 = assay: Cytotoxicity against mouse P388 cells
HT-29 = assay: Cytotoxicity against human HT-29 cells
DU-145 = assay: Cytotoxicity against human DU145 cells

In the case of COC(=O)c1cccc2c3c(n(O)c12)C(O)(C=O)C=CC3=O (stereo not given) [COPROVERDINE], the pIC50 (SK-MEL-28) was 6.52, the pIC50 (A549) was 6.52 and the pIC50 (P388) was 5.80. For the same molecule, the pIC50 (HT-29) was 6.52 and the pIC50 (DU-145) was 6.52.
